“And” between values parts separate entries of the source, which are not always exact repeats. Equal values may be shown once. Inconclusive results and toxic doses are left out. Rule as the data show it: active = T/C of 150% or more; inactive = T/C below 125%.
Tested on: L1210 leukemia ip in BDF1 mice, survival T/C
Test: NCI In Vivo Anticancer Drug Screen. Data for tumor model L1210 Leukemia (intraperitoneal) in B6D2F1 (BDF1) mice
Conditions: endpoint: mean survival time, higher = longer survival
Summary of the method: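 Antitumor effect is assessed in tumor-bearing animals. Survival in the compound arm is compared with a vehicle-dosed control arm and expressed as their quotient.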

[1] = dose: 100.0 mg/kg/injection, schedule: Q04DX003 (ip), vehicle: Klucel (hydroxypropylcellulose) (HPC)
[2] = dose: 200.0 mg/kg/injection, schedule: Q04DX003 (ip), vehicle: Klucel (hydroxypropylcellulose) (HPC)
[3] = dose: 400.0 mg/kg/injection, schedule: Q04DX003 (ip), vehicle: Klucel (hydroxypropylcellulose) (HPC)
[4] = dose: 100.0 mg/kg/injection, schedule: Q01DX009 (ip), vehicle: saline with Tween-80
[5] = dose: 200.0 mg/kg/injection, schedule: Q01DX009 (ip), vehicle: saline with Tween-80
[6] = dose: 400.0 mg/kg/injection, schedule: Q01DX009 (ip), vehicle: saline with Tween-80
[7] = dose: 100.0 mg/kg/injection, schedule: Q04DX003 (ip), vehicle: saline with Tween-80
[8] = dose: 200.0 mg/kg/injection, schedule: Q04DX003 (ip), vehicle: saline with Tween-80
[9] = dose: 100.0 mg/kg/injection, schedule: Q04DX002 (ip), vehicle: Klucel (hydroxypropylcellulose) (HPC)
[10] = dose: 200.0 mg/kg/injection, schedule: Q04DX002 (ip), vehicle: Klucel (hydroxypropylcellulose) (HPC)
[11] = dose: 100.0 mg/kg/injection, schedule: Q01DX001 (ip), vehicle: carboxymethylcellulose (CMC)
[12] = dose: 200.0 mg/kg/injection, schedule: Q01DX001 (ip), vehicle: carboxymethylcellulose (CMC)
[13] = dose: 400.0 mg/kg/injection, schedule: Q01DX001 (ip), vehicle: carboxymethylcellulose (CMC)
[14] = dose: 25.0 mg/kg/injection, schedule: Q01DX009 (ip), vehicle: saline with Tween-80
[15] = dose: 50.0 mg/kg/injection, schedule: Q01DX001 (ip), vehicle: carboxymethylcellulose (CMC)
[16] = dose: 400.0 mg/kg/injection, schedule: Q01DX001 (ip), vehicle: saline

Measured: T/C

O=C(CNC(=O)OCc1ccccc1)NC(Cc1ccccc1)C(=O)Oc1c(Cl)c(Cl)c(Cl)c(Cl)c1Cl (configuration not stated)
inactive: dose: 75.0 mg/kg/injection, schedule: Q01DX001 (ip), vehicle: carboxymethylcellulose (CMC) 106 % of control | dose: 150.0 mg/kg/injection, schedule: Q01DX001 (ip), vehicle: carboxymethylcellulose (CMC) 98 % of control | dose: 300.0 mg/kg/injection, schedule: Q01DX001 (ip), vehicle: carboxymethylcellulose (CMC) 91 % of control

COC(=O)C1=C(C)NC(=S)NC1c1ccc(N(CCCl)CCCl)cc1Cl (configuration not stated)
inactive: [1] 95 % of control | [2] 95 % of control | [3] 101 % of control

Cc1ccc(SC(=O)Cc2ccc([N+](=O)[O-])cc2)cc1
inactive: [4] 97 % of control | [5] 86 % of control | [6] 93 % of control

CCC1NC(=O)C(NC(=O)c2ncccc2O)C(C)OC(=O)C(c2ccccc2)NC(=O)C2CC(=O)CCN2C(=O)C(Cc2ccccc2)N(C)C(=O)C2CCCN2C1=O (configuration not stated) (tested in a mixture with another compound)
inactive: dose: 18.75 mg/kg/injection, schedule: Q01DX009 (ip), vehicle: Klucel (hydroxypropylcellulose) (HPC) 91 % of control | dose: 37.5 mg/kg/injection, schedule: Q01DX009 (ip), vehicle: Klucel (hydroxypropylcellulose) (HPC) 107 % of control | dose: 75.0 mg/kg/injection, schedule: Q01DX009 (ip), vehicle: Klucel (hydroxypropylcellulose) (HPC) 98 % of control

COc1cc([N+](=O)[O-])c(C)cc1Nc1ccc(OC)c(OC)c1
inactive: [4] 105 % of control | [7] 98 % of control | [5] 96 % of control | [8] 93 % of control | [6] 96 % of control | dose: 400.0 mg/kg/injection, schedule: Q04DX003 (ip), vehicle: saline with Tween-80 92 % of control

O=C1OI(Cl)c2ccccc21
inactive: [9] 88 % of control | [10] 120 % of control

N=C(c1ccccc1)c1ccccc1S(=O)(=O)Nc1ccccc1
inactive: [11] 95 % of control | [12] 101 % of control | [13] 95 % of control

COc1ccc(Cl)cc1NC(=O)Nc1ccc(CCO)cc1
inactive: dose: 100.0 mg/kg/injection, schedule: Q01DX009 (ip), vehicle: saline 100 % of control | dose: 100.0 mg/kg/injection, schedule: Q04DX003 (ip), vehicle: saline 113 % of control | dose: 200.0 mg/kg/injection, schedule: Q01DX009 (ip), vehicle: saline 91 % of control | dose: 200.0 mg/kg/injection, schedule: Q04DX003 (ip), vehicle: saline 103 % of control | dose: 400.0 mg/kg/injection, schedule: Q01DX009 (ip), vehicle: saline 93 % of control | dose: 400.0 mg/kg/injection, schedule: Q04DX003 (ip), vehicle: saline 101 % of control

O=C(CCBr)c1ccc(Cl)cc1
inactive: dose: 6.25 mg/kg/injection, schedule: Q01DX009 (ip), vehicle: saline with Tween-80 93 % of control | dose: 12.5 mg/kg/injection, schedule: Q01DX009 (ip), vehicle: saline with Tween-80 91 % of control | [14] 93 % of control

FC(F)(F)c1nc2nc(Br)c(Br)nc2[nH]1
inactive: dose: 50.0 mg/kg/injection, schedule: Q01DX009 (ip), vehicle: saline with Tween-80 108 % of control | [4] 89 % of control | [7] 109 % of control and 110 % of control and 111 % of control | [5] 98 % of control | [8] 102 % of control and 115 % of control

COc1ccc(C(=O)CBr)c(OC)c1
inactive: dose: 12.5 mg/kg/injection, schedule: Q04DX003 (ip), vehicle: saline 104 % of control | [14] 96 % of control | dose: 25.0 mg/kg/injection, schedule: Q04DX003 (ip), vehicle: saline 97 % of control | dose: 50.0 mg/kg/injection, schedule: Q04DX003 (ip), vehicle: saline 93 % of control | [7] 97 % of control

CCC(C)n1c(C)cc(=O)n1C(C)CC (configuration not stated)
inactive: dose: 15.0 mg/kg/injection, schedule: Q01DX001 (ip), vehicle: saline 101 % of control | dose: 30.0 mg/kg/injection, schedule: Q01DX001 (ip), vehicle: saline 97 % of control | dose: 60.0 mg/kg/injection, schedule: Q01DX001 (ip), vehicle: saline 101 % of control

CC(=O)Nc1ccc(Br)cc1
inactive: [15] 92 % of control | [11] 93 % of control | dose: 100.0 mg/kg/injection, schedule: Q01DX009 (ip), vehicle: Klucel (hydroxypropylcellulose) (HPC) 103 % of control | [1] 98 % of control | [12] 93 % of control | dose: 200.0 mg/kg/injection, schedule: Q01DX009 (ip), vehicle: Klucel (hydroxypropylcellulose) (HPC) 113 % of control | [2] 104 % of control | [3] 106 % of control

CCCCCOB(OCCCCC)OCCCCC
inactive: [15] 93 % of control | [11] 95 % of control | [12] 93 % of control | [13] 98 % of control

CNC(=N)c1ccc(NC(=N)c2ccc(NC(=N)c3ccc(NC(=N)c4ccc(C(=N)NC)cc4)cc3)cc2)cc1
inactive: dose: 4.4 mg/kg/injection, schedule: Q01DX015 (sc), vehicle: water 102 % of control | dose: 5.5 mg/kg/injection, schedule: Q01DX Z (ip), vehicle: water 116 % of control | dose: 6.7 mg/kg/injection, schedule: Q01DX015 (sc), vehicle: water 107 % of control | dose: 7.5 mg/kg/injection, schedule: Q01DX001 (ip), vehicle: water 104 % of control | dose: 10.0 mg/kg/injection, schedule: Q01DX015 (sc), vehicle: water 112 % of control | dose: 15.0 mg/kg/injection, schedule: Q01DX001 (ip), vehicle: water 106 % of control | dose: 30.0 mg/kg/injection, schedule: Q01DX001 (ip), vehicle: water 106 % of control | dose: 44.0 mg/kg/injection, schedule: Q01DX Z (ip), vehicle: water 100 % of control
active: dose: 16.0 mg/kg/injection, schedule: Q01DX015 (ip), vehicle: water 216 % of control | dose: 22.0 mg/kg/injection, schedule: Q01DX Z (ip), vehicle: water 191 % of control | dose: 22.5 mg/kg/injection, schedule: Q01DX015 (sc), vehicle: water 184 % of control

N#Cc1ccc(CC(=O)c2ccccc2)cc1
inactive: dose: 50.0 mg/kg/injection, schedule: Q01DX001 (ip), vehicle: saline 101 % of control | dose: 100.0 mg/kg/injection, schedule: Q01DX001 (ip), vehicle: saline 97 % of control | dose: 200.0 mg/kg/injection, schedule: Q01DX001 (ip), vehicle: saline 101 % of control | [16] 95 % of control

Cc1ccc(C[n+]2cc([O-])on2)cc1C
inactive: dose: 100.0 mg/kg/injection, schedule: Q01DX Z (ip), vehicle: saline 105 % of control | dose: 200.0 mg/kg/injection, schedule: Q01DX Z (ip), vehicle: saline 93 % of control

O=[N+]([O-])c1ccc(/C=N/Nc2c3ccccc3nc3ccccc23)cc1
inactive: [16] 94 % of control

N#Cc1ccc(/C=C\c2ccc(C#N)cc2)cc1
inactive: dose: 0.6 mg/kg/injection, schedule: Q04DX002 (ip), vehicle: Klucel (hydroxypropylcellulose) (HPC) 104 % of control | dose: 1.2 mg/kg/injection, schedule: Q04DX002 (ip), vehicle: Klucel (hydroxypropylcellulose) (HPC) 104 % of control | dose: 2.5 mg/kg/injection, schedule: Q04DX002 (ip), vehicle: Klucel (hydroxypropylcellulose) (HPC) 97 % of control | dose: 50.0 mg/kg/injection, schedule: Q04DX002 (ip), vehicle: Klucel (hydroxypropylcellulose) (HPC) 104 % of control | [9] 104 % of control and 122 % of control | [10] 109 % of control and 110 % of control | dose: 400.0 mg/kg/injection, schedule: Q04DX002 (ip), vehicle: Klucel (hydroxypropylcellulose) (HPC) 98 % of control

CCCCCCCCCC(C)CC1CCCCC1 (configuration not stated)
inactive: dose: 100.0 mg/kg/injection, schedule: Q01DX001 (ip), vehicle: saline with Tween-80 96 % of control | dose: 200.0 mg/kg/injection, schedule: Q01DX001 (ip), vehicle: saline with Tween-80 96 % of control

CCOC(=O)c1cccc(N(CCOS(C)(=O)=O)CCOS(C)(=O)=O)c1
inactive: dose: 16.0 mg/kg/injection, schedule: Q01DX015 (ip), vehicle: saline 110 % of control | dose: 32.0 mg/kg/injection, schedule: Q01DX015 (ip), vehicle: saline 118 % of control | dose: 64.0 mg/kg/injection, schedule: Q01DX015 (ip), vehicle: saline 111 % of control
